# Where two headings read alike, the source gives them in different places.
# Key:
# [1] = test system: T1, IRE1 (endogenous, KMS-11); test: cells; parameters: XBP1s mRNA by branched DNA assay in KMS-11 cell lysates after compound treatment; conditions: Homo sapiens, KMS-11, 4 h
# T1 construct: endogenous full-length in KMS-11 cells
# Description: 15-20k KMS-11 cells in RPMI growth media were seeded into 96-well plates and treated with compounds or DMSO control over a period of 4 h the following day. RNA levels of XBP1s and DGAT2 in KMS-11 cell lysates were measured using the QuantiGene 2.0 bDNA assay technology (Thermofisher). See Supplementary Table 4 for sequences of relevant capture probes. Data analysis was carried out against an assay background control with no cell lysate (no-RNA control). In the case of AMG-18, cells were also stimulated with thapsigargin (Tg, 100 nM) 30 min after compound addition. No Tg was used when treating cells with all other compounds. Samples were run in duplicate. To investigate whether this peculiar conformation had any role in the mechanism of activation of G-1749, we evaluated different tails to substitute the ethyl carbamate on the naphthyl moiety (Fig. 3, Supplementary Table 2). […] This is likely due to clashes with residues lining the front pocket, which in turn would force the tails to occupy the back pocket and break the salt bridge, thereby causing RNase inhibition. […] Experiments in KMS-11 cells (Fig. 3b, c, right panels) confirmed the effect of these tail modifications on IRE1 RNase activation. […] The chemical substituents tolerated by the front pocket seem to be very limited: even a minor substitution of the carbamate oxygen atom to a larger [compound left out], from ethyl carbamate to propyl amide (compound 6), or from methyl carbamate to methyl or ethyl amide (compound 4 or 5, respectively), or increasing the tail length by one atom, from ethyl to propyl carbamate (compound 11), is enough to impart a switch from activation to inhibition (Fig. 3b, c). […] RNA cleavage was measured by a kinetic fluorescence assay using an XBP1-like RNA hairpin substrate and IRE1 LKR construct (Q470-L977). Background from the no-protein control was subtracted from signal before calculating fold change. Source data are provided as a Source Data file. Data are presented as the mean for measurements from two independent experiments (n = 2). c RNA levels for IRE1 RNase product XBP1s measured by bDNA assay of lysates from KMS-11 cells treated with compounds for 4 h. Background from the no-RNA control was subtracted from signal before calculating fold change. Source data are provided as a Source Data file. Data are presented as the mean for measurements from two independent experiments (n = 2). d, e Analytical Ultracentrifugation sedimentation velocity (SV-AUC) experiments for (d), IRE1 LKR (Q470-L977) unphosphorylated and autophosphorylated and (e), IRE1 LKR unphosphorylated in the presence of slight excess G-9807 and G-1749. Calculated sedimentation coefficients for IRE1 monomer (3.1 svedbergs) and dimer (4.6 svedbergs) are highlighted by dotted lines. Source data are provided as a Source Data file.
# [2] = target: Inositol-Requiring Enzyme 1 (IRE1) (Homo sapiens, UniProt O75460); test: biochemical; parameters: gene ERN1; IRE1 cytoplasmic kinase-RNase construct; kinetic fluorescence RNA cleavage (FAM/BHQ XBP1 stem-loop) by IRE1 LKR Q470-L977
# Sequence of Inositol-Requiring Enzyme 1 (IRE1) (O75460 547-977): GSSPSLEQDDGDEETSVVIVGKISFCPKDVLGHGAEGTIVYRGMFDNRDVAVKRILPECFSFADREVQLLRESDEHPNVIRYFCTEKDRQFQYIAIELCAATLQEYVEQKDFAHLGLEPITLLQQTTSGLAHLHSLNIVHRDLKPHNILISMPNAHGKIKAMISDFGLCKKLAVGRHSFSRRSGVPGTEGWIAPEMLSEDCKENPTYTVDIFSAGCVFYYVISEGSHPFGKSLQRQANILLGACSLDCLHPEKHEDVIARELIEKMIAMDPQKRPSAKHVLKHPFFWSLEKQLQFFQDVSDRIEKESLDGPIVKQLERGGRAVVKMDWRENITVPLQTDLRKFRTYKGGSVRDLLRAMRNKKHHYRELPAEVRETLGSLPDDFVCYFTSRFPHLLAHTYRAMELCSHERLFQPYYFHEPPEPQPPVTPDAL
# Description: A 5′-Carboxyfluorescein (FAM)-and 3′-Black Hole Quencher (BHQ)-labeled single stem-loop mini-substrate containing XBP1 sequence (sequence reported in Supplementary Table 4) was used as substrate for cleavage by IRE1 LKR (Q470-L977) or IRE1 KR (G547-L977) in 20 mM HEPES pH 7.5, 50 mM potassium acetate, 1 mM magnesium acetate, 1 mM dithiothreitol, 0.05% v/v TritonX-100. Concentrations were as follows: 8 nM IRE1 LKR and 200 nM RNA substrate; 22 nM IRE1 KR-0P and 200 nM RNA substrate; 2 nM IRE1 KR 3P and 500 nM RNA substrate. RNA cleavage was measured kinetically over an hour at room temperature as an increase in fluorescence. The final reaction was carried out in 20 µL in 384-well plates. Samples were run in duplicate. To investigate whether this peculiar conformation had any role in the mechanism of activation of G-1749, we evaluated different tails to substitute the ethyl carbamate on the naphthyl moiety (Fig. 3, Supplementary Table 2). […] This is likely due to clashes with residues lining the front pocket, which in turn would force the tails to occupy the back pocket and break the salt bridge, thereby causing RNase inhibition. […] Experiments in KMS-11 cells (Fig. 3b, c, right panels) confirmed the effect of these tail modifications on IRE1 RNase activation. […] The chemical substituents tolerated by the front pocket seem to be very limited: even a minor substitution of the carbamate oxygen atom to a larger [compound left out], from ethyl carbamate to propyl amide (compound 6), or from methyl carbamate to methyl or ethyl amide (compound 4 or 5, respectively), or increasing the tail length by one atom, from ethyl to propyl carbamate (compound 11), is enough to impart a switch from activation to inhibition (Fig. 3b, c). […] RNA cleavage was measured by a kinetic fluorescence assay using an XBP1-like RNA hairpin substrate and IRE1 LKR construct (Q470-L977). Background from the no-protein control was subtracted from signal before calculating fold change. Source data are provided as a Source Data file. Data are presented as the mean for measurements from two independent experiments (n = 2). c RNA levels for IRE1 RNase product XBP1s measured by bDNA assay of lysates from KMS-11 cells treated with compounds for 4 h. Background from the no-RNA control was subtracted from signal before calculating fold change. Source data are provided as a Source Data file. Data are presented as the mean for measurements from two independent experiments (n = 2). d, e Analytical Ultracentrifugation sedimentation velocity (SV-AUC) experiments for (d), IRE1 LKR (Q470-L977) unphosphorylated and autophosphorylated and (e), IRE1 LKR unphosphorylated in the presence of slight excess G-9807 and G-1749. Calculated sedimentation coefficients for IRE1 monomer (3.1 svedbergs) and dimer (4.6 svedbergs) are highlighted by dotted lines. Source data are provided as a Source Data file.
# [3] = target: IRE1 LKR (Q470-L977), autophosphorylated (human) (UniProt O75460); test: AUC; sedimentation velocity; IRE1 LKR at 3.3, 10 and 30 µM without compound; 25 mM HEPES pH 7.5, 250 mM NaCl, 1 mM TCEP; 20 °C, 45,000 rpm, A280; fit to a monomer-dimer equilibrium model (Sedanal); monomer to dimer
# [4] = target: IRE1 LKR (Q470-L977), unphosphorylated (human) (UniProt O75460); test: AUC; sedimentation velocity; unphosphorylated IRE1 LKR at 3.3, 10 and 30 µM with a slight (ca. 15% molar) excess of G-9807 (4, 12, 35 µM); 25 mM HEPES pH 7.5, 250 mM NaCl, 1 mM TCEP; 20 °C; fit to a monomer-dimer equilibrium model; monomer to dimer
# [5] = XBP1s mRNA increase, read-out: EC50 (KMS-11 bDNA assay, XBP1s), activators
# [6] = RNase activation, read-out: EC50 (RNase biochemical assay), activators
# [7] = XBP1s mRNA decrease, read-out: EC50 (KMS-11 bDNA assay, XBP1s), inhibitors
# [8] = RNase inhibition, read-out: EC50 (RNase biochemical assay), inhibitors
# [9] = RNase inhibition, inhibitor, read-out: EC50 (RNase biochemical assay), inhibitors
Molecule,"EC50 [1, 7] [nM]","EC50 [2, 9] [nM]",other results
C/C=C/C(=O)Nc1cccc2c(Oc3ncccc3-c3ccnc(N[C@H]4CCCNC4)n3)c(C)ccc12 [compound 1],,,"EC50 [1, 5]: 331 ± 128 nM; EC50 [2, 6]: 7 ± 1 nM"
COC(=O)Nc1cccc2c(Oc3ncccc3-c3ccnc(N[C@H]4CCCNC4)n3)c(C)ccc12 [compound 2],,,"EC50 [1, 5]: 3370 ± 709 nM; EC50 [2, 6]: 4 ± 4 nM"
"Cc1ccc2c(N)cccc2c1Oc1ncccc1-c1ccnc(N[C@H]2CCCNC2)n1 [compound 3, 3]",,,"EC50 [1, 5]: 3260 ± 480 nM; EC50 ([2]; RNase activation, activator, read-out: EC50 (RNase biochemical assay), activators): 31 ± 23 nM"
CC(=O)Nc1cccc2c(Oc3ncccc3-c3ccnc(N[C@H]4CCCNC4)n3)c(C)ccc12 [compound 4],649 ± 241,,"EC50 [2, 8]: 8 ± 2 nM"
CCC(=O)Nc1cccc2c(Oc3ncccc3-c3ccnc(N[C@H]4CCCNC4)n3)c(C)ccc12 [compound 5],816 ± 346,,"EC50 [2, 8]: 28 ± 5 nM"
"IRE1 LKR (Q470-L977), autophosphorylated (from UniProt O75460 470-977) (domain or fragment)",,,Kd [3]: 67 µM; stoichiometry N [3]: 2
"IRE1 LKR (Q470-L977), unphosphorylated (from UniProt O75460 470-977) (domain or fragment)",,,stoichiometry N [4]: 2

# Now from value to molecule, other results behind:
"EC50 [1, 7] [nM]","EC50 [2, 9] [nM]",Molecule,other results
221 ± 52,,CCCC(=O)Nc1cccc2c(Oc3ncccc3-c3ccnc(N[C@H]4CCCNC4)n3)c(C)ccc12 [compound 6],"EC50 [2, 8]: 22 ± 35 nM"
456 ± 226,36 ± 5,"Cc1ccc2c(NC(=O)OC(C)C)cccc2c1Oc1ncccc1-c1ccnc(N[C@H]2CCCNC2)n1 [compound 7, 7]",
465 ± 154,18 ± 3,"Cc1ccc2c(NC(=O)OCC(C)C)cccc2c1Oc1ncccc1-c1ccnc(N[C@H]2CCCNC2)n1 [compound 8, 8]",
1050 ± 372,68 ± 21,"Cc1ccc2c(NC(=O)OCC(C)(C)C)cccc2c1Oc1ncccc1-c1ccnc(N[C@H]2CCCNC2)n1 [compound 9, 9]",
380 ± 109,35 ± 5,"Cc1ccc2c(NC(=O)C#CC(C)(C)C)cccc2c1Oc1ncccc1-c1ccnc(N[C@H]2CCCNC2)n1 [compound 10, 10]",
234 ± 78,,CCCOC(=O)Nc1cccc2c(Oc3ncccc3-c3ccnc(N[C@H]4CCCNC4)n3)c(C)ccc12 [compound 11],"EC50 [2, 8]: 29 ± 6 nM"
645 ± 111,52 ± 12,"Cc1ccc2c(NC(=O)C#CCC(C)(C)C)cccc2c1Oc1ncccc1-c1ccnc(N[C@H]2CCCNC2)n1 [compound 12, 12]",

# — publication PMC7736581, “Activation of the IRE1 RNase through remodeling of the kinase front pocket by ATP-competitive ligands” (Nature Communications, 2020)
